Data from PubChem BioAssay AID248 (DTP/NCI, 2004).
Several values for one entry are separate records, joined by “and”; a condition that tells them apart may be missing. Identical values can stand only once. Toxic doses and inconclusive results are not listed. Cut-off read from the data, not from the text of the source: active = T/C of 150% or more; inactive = T/C below 125%.

System: L1210 leukemia ip in BDF1 mice, survival T/C
Assay: NCI In Vivo Anticancer Drug Screen. Data for tumor model L1210 Leukemia (intraperitoneal) in B6D2F1 (BDF1) mice
Conditions: endpoint: mean survival time, higher = longer survival
In short: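 Antitumor effect is assessed in tumor-bearing animals. Survival in the compound arm is compared with a vehicle-dosed control arm and expressed as their quotient.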

[1] = dose: 50.0 mg/kg/injection, schedule: Q01DX001 (ip), vehicle: carboxymethylcellulose (CMC)
[2] = dose: 100.0 mg/kg/injection, schedule: Q01DX001 (ip), vehicle: carboxymethylcellulose (CMC)
[3] = dose: 200.0 mg/kg/injection, schedule: Q01DX001 (ip), vehicle: carboxymethylcellulose (CMC)
[4] = dose: 400.0 mg/kg/injection, schedule: Q01DX001 (ip), vehicle: carboxymethylcellulose (CMC)
[5] = dose: 50.0 mg/kg/injection, schedule: Q01DX001 (ip), vehicle: saline
[6] = dose: 100.0 mg/kg/injection, schedule: Q01DX001 (ip), vehicle: saline
[7] = dose: 200.0 mg/kg/injection, schedule: Q01DX001 (ip), vehicle: saline
[8] = dose: 400.0 mg/kg/injection, schedule: Q01DX001 (ip), vehicle: saline
[9] = dose: 75.0 mg/kg/injection, schedule: Q04DX003 (ip), vehicle: saline
[10] = dose: 150.0 mg/kg/injection, schedule: Q04DX003 (ip), vehicle: saline
[11] = dose: 300.0 mg/kg/injection, schedule: Q04DX003 (ip), vehicle: saline
[12] = dose: 100.0 mg/kg/injection, schedule: Q04DX003 (ip), vehicle: Klucel (hydroxypropylcellulose) (HPC)
[13] = dose: 200.0 mg/kg/injection, schedule: Q04DX003 (ip), vehicle: Klucel (hydroxypropylcellulose) (HPC)

Measured: T/C

N=C(N)c1ccc(-c2[nH]c3cc(C(=N)N)ccc3c2-c2ccccc2)cc1
inactive: dose: 12.5 mg/kg/injection, schedule: Q04DX003 (ip), vehicle: saline 100 % of control and 110 % of control | dose: 25.0 mg/kg/injection, schedule: Q04DX003 (ip), vehicle: saline 100 % of control and 110 % of control | dose: 50.0 mg/kg/injection, schedule: Q04DX003 (ip), vehicle: saline 108 % of control and 112 % of control

C[Si](C)(CCl)O[Si](C)(C)CCl
inactive: [1] 113 % of control | [2] 97 % of control | [3] 106 % of control | [4] 97 % of control

O=[N+]([O-])c1cc(O)cc(F)c1
inactive: [2] 100 % of control

O=c1oc2ccc(N=Cc3ccc4c(c3)OCO4)cc2c2ccccc12
inactive: dose: 100.0 mg/kg/injection, schedule: Q01DX001 (ip), vehicle: other 91 % of control | dose: 200.0 mg/kg/injection, schedule: Q01DX001 (ip), vehicle: other 93 % of control | dose: 400.0 mg/kg/injection, schedule: Q01DX001 (ip), vehicle: other 93 % of control

CC(C)=CCCC(C)CCOc1ccc(C(C)C)cc1 (configuration not stated)
inactive: dose: 100.0 mg/kg/injection, schedule: Q04DX002 (ip), vehicle: saline with Tween-80 108 % of control | dose: 200.0 mg/kg/injection, schedule: Q04DX002 (ip), vehicle: saline with Tween-80 96 % of control | dose: 400.0 mg/kg/injection, schedule: Q04DX002 (ip), vehicle: saline with Tween-80 103 % of control

Cc1cccc(CN=C(N)CSS(=O)(=O)O)n1
inactive: dose: 25.0 mg/kg/injection, schedule: Q01DX009 (ip), vehicle: Klucel (hydroxypropylcellulose) (HPC) 104 % of control | dose: 25.0 mg/kg/injection, schedule: Q04DX002 (ip), vehicle: Klucel (hydroxypropylcellulose) (HPC) 92 % of control | dose: 50.0 mg/kg/injection, schedule: Q01DX009 (ip), vehicle: Klucel (hydroxypropylcellulose) (HPC) 96 % of control | dose: 50.0 mg/kg/injection, schedule: Q04DX002 (ip), vehicle: Klucel (hydroxypropylcellulose) (HPC) 103 % of control | dose: 100.0 mg/kg/injection, schedule: Q04DX002 (ip), vehicle: Klucel (hydroxypropylcellulose) (HPC) 101 % of control and 88 % of control

CC1OC(C(Cl)(Cl)Cl)NC1=O (configuration not stated)
inactive: dose: 100.0 mg/kg/injection, schedule: Q04DX002 (ip), vehicle: saline 89 % of control | dose: 200.0 mg/kg/injection, schedule: Q04DX002 (ip), vehicle: saline 99 % of control | dose: 400.0 mg/kg/injection, schedule: Q04DX002 (ip), vehicle: saline 89 % of control

CC/C(=N/N=C(N)N)c1ccc(F)cc1
inactive: dose: 15.0 mg/kg/injection, schedule: Q01DX Z (oral), vehicle: carboxymethylcellulose (CMC) 104 % of control | dose: 30.0 mg/kg/injection, schedule: Q01DX Z (oral), vehicle: carboxymethylcellulose (CMC) 101 % of control | dose: 60.0 mg/kg/injection, schedule: Q01DX Z (oral), vehicle: carboxymethylcellulose (CMC) 98 % of control

CCN(CC)CCCN1C(=O)c2ccccc2S1(=O)=O
inactive: dose: 44.0 mg/kg/injection, schedule: Q01DX Z (ip), vehicle: saline 102 % of control | dose: 66.0 mg/kg/injection, schedule: Q01DX Z (ip), vehicle: saline 102 % of control | dose: 100.0 mg/kg/injection, schedule: Q01DX Z (ip), vehicle: saline 108 % of control

C(=C\c1nc2ccccc2[nH]1)/c1nc2ccccc2[nH]1
inactive: [5] 108 % of control | [6] 96 % of control | [7] 96 % of control | [8] 106 % of control

CCCCCCN(CCCCCC)CC(=O)NCCCN1CCN(CCCNC(=O)CN(CCCCCC)CCCCCC)CC1
inactive: dose: 12.5 mg/kg/injection, schedule: Q01DX001 (ip), vehicle: carboxymethylcellulose (CMC) 105 % of control | dose: 22.0 mg/kg/injection, schedule: Q01DX001 (ip), vehicle: carboxymethylcellulose (CMC) 98 % of control and 104 % of control | dose: 25.0 mg/kg/injection, schedule: Q01DX001 (ip), vehicle: carboxymethylcellulose (CMC) 100 % of control | dose: 33.0 mg/kg/injection, schedule: Q01DX001 (ip), vehicle: carboxymethylcellulose (CMC) 95 % of control and 100 % of control | [1] 98 % of control and 101 % of control

CCN(CC)CCSC(=O)c1ccccc1
inactive: dose: 50.0 mg/kg/injection, schedule: Q01DX009 (ip), vehicle: saline 94 % of control | dose: 100.0 mg/kg/injection, schedule: Q01DX009 (ip), vehicle: saline 100 % of control | dose: 200.0 mg/kg/injection, schedule: Q01DX009 (ip), vehicle: saline 100 % of control

C=C(NC(C)=O)C(=O)OC
inactive: [9] 102 % of control | [10] 100 % of control | [11] 97 % of control

ClCCCOC1CCCCO1 (configuration not stated)
inactive: [12] 89 % of control | dose: 100.0 mg/kg/injection, schedule: Q04DX003 (ip), vehicle: saline with Tween-80 107 % of control | [13] 95 % of control | dose: 200.0 mg/kg/injection, schedule: Q04DX003 (ip), vehicle: saline with Tween-80 96 % of control | dose: 400.0 mg/kg/injection, schedule: Q04DX003 (ip), vehicle: saline with Tween-80 96 % of control

CC1CC(C)(C)OB(OC(C)CC(C)(C)OB2OC(C)CC(C)(C)O2)O1 (configuration not stated)
inactive: [5] 102 % of control | [6] 107 % of control | [7] 96 % of control | [8] 107 % of control

O=[N+]([O-])c1ccc(SNc2ccc(NSc3ccc([N+](=O)[O-])cc3)cc2)cc1
inactive: dose: 25.0 mg/kg/injection, schedule: Q01DX001 (ip), vehicle: saline with Tween-80 96 % of control | dose: 50.0 mg/kg/injection, schedule: Q01DX001 (ip), vehicle: saline with Tween-80 100 % of control

Oc1c(Cl)cc(Cl)cc1/C=N\Nc1ccccn1
inactive: dose: 100.0 mg/kg/injection, schedule: Q01DX001 (ip), vehicle: Klucel (hydroxypropylcellulose) (HPC) 92 % of control | dose: 200.0 mg/kg/injection, schedule: Q01DX001 (ip), vehicle: Klucel (hydroxypropylcellulose) (HPC) 95 % of control | dose: 400.0 mg/kg/injection, schedule: Q01DX001 (ip), vehicle: Klucel (hydroxypropylcellulose) (HPC) 95 % of control

CCOC(=O)CC(CC(=O)OCC)NC(=O)c1ccc(N(C)Cc2ccccc2)cc1
inactive: [2] 107 % of control | [3] 108 % of control | [4] 105 % of control

Cn1cnc(=O)c2ccccc21
inactive: dose: 100.0 mg/kg/injection, schedule: Q04DX003 (ip), vehicle: saline 88 % of control | dose: 200.0 mg/kg/injection, schedule: Q04DX003 (ip), vehicle: saline 100 % of control

Cc1ccc(S(=O)(=O)NC(C)(C)CNc2ncnc(Cl)c2N)cc1
inactive: dose: 9.5 mg/kg/injection, schedule: Q01DX001 (ip), vehicle: other 101 % of control | dose: 19.0 mg/kg/injection, schedule: Q01DX001 (ip), vehicle: other 96 % of control

COc1ccc(CNCCN2CC2)cc1
inactive: dose: 10.0 mg/kg/injection, schedule: Q01DX009 (ip), vehicle: Klucel (hydroxypropylcellulose) (HPC) 108 % of control | dose: 20.0 mg/kg/injection, schedule: Q01DX009 (ip), vehicle: Klucel (hydroxypropylcellulose) (HPC) 106 % of control | dose: 40.0 mg/kg/injection, schedule: Q01DX009 (ip), vehicle: Klucel (hydroxypropylcellulose) (HPC) 98 % of control

CN(C)C(=S)SCNC(=S)NCSC(=S)N(C)C
inactive: [12] 106 % of control | [13] 96 % of control | dose: 400.0 mg/kg/injection, schedule: Q04DX003 (ip), vehicle: Klucel (hydroxypropylcellulose) (HPC) 98 % of control

O=NN(CCCl)C(=O)C1CCC(C(=O)N(CCCl)N=O)CC1 (configuration not stated)
inactive: dose: 0.25 mg/kg/injection, schedule: Q01DX001 (ip), vehicle: carboxymethylcellulose (CMC) 108 % of control | dose: 0.5 mg/kg/injection, schedule: Q01DX001 (ip), vehicle: carboxymethylcellulose (CMC) 117 % of control | dose: 10.0 mg/kg/injection, schedule: Q01DX001 (ip), vehicle: carboxymethylcellulose (CMC) 124 % of control | dose: 15.0 mg/kg/injection, schedule: Q01DX001 (ip), vehicle: carboxymethylcellulose (CMC) 123 % of control | dose: 30.0 mg/kg/injection, schedule: Q01DX001 (ip), vehicle: carboxymethylcellulose (CMC) 118 % of control | dose: 62.0 mg/kg/injection, schedule: Q01DX001 (ip), vehicle: carboxymethylcellulose (CMC) 87 % of control

O=C(O)/C(Br)=C\c1cccc([N+](=O)[O-])c1
inactive: [6] 107 % of control | [7] 98 % of control | [8] 109 % of control

OCCNCc1ccc2ccccc2n1
inactive: [9] 96 % of control | [10] 100 % of control | [11] 96 % of control

O=C(O)CCN1CCN(c2cccc(Cl)c2)CC1
inactive: [6] 96 % of control | [7] 95 % of control

CCCOc1ccc(C(=O)C(=O)c2ccccc2)cc1
inactive: [2] 97 % of control | [3] 100 % of control | [4] 97 % of control
